Source: ChEMBL document CHEMBL4346655, “Synthesis and biological activities of artemisinin-piperazine-dithiocarbamate derivatives” (Eur J Med Chem, 2019)

How the values were obtained:
SMMC-7721 [1] = experiment: Cytotoxicity against human SMMC7721 cells incubated for 72 hrs by MTT assay; assay type: functional, cell-based; settings: SMMC-7721, 72 h
L02 = experiment: Cytotoxicity against human L02 cells incubated for 72 hrs by MTT assay; assay type: cell-based; settings: L02, 72 h
SMMC-7721 [2] = experiment: Induction of apoptosis in human SMMC7721 cells assessed as live cells at 10 ug/ml incubated for 72 hrs by Annexin V-FITC/PI staining based flow cytometric analysis (reference value: 94.81 to 96.55%); assay type: functional
SMMC-7721 [3] = experiment: Induction of apoptosis in human SMMC7721 cells assessed as necrotic cells at 1 ug/ml incubated for 72 hrs by Annexin V-FITC/PI staining based flow cytometric analysis (reference value: 0.52 to 0.72%); assay type: functional
SMMC-7721 [4] = experiment: Induction of apoptosis in human SMMC7721 cells assessed as early apoptotic cells at 10 ug/ml incubated for 72 hrs by Annexin V-FITC/PI staining based flow cytometric analysis (reference value: 1.31 to 1.65%); assay type: functional
SMMC-7721 [5] = experiment: Induction of apoptosis in human SMMC7721 cells assessed as early apoptotic cells at 1 ug/ml incubated for 72 hrs by Annexin V-FITC/PI staining based flow cytometric analysis (reference value: 1.31 to 1.65%); assay type: functional
CCD-18Co = experiment: Cytotoxicity against human CCD-18Co cells incubated for 72 hrs by MTT assay; assay type: cell-based
SMMC-7721 [6] = experiment: Induction of apoptosis in human SMMC7721 cells assessed as necrotic cells at 50 ug/ml incubated for 72 hrs by Annexin V-FITC/PI staining based flow cytometric analysis (reference value: 0.52 to 0.72%); assay type: functional
SMMC-7721 [7] = experiment: Induction of apoptosis in human SMMC7721 cells assessed as early apoptotic cells at 50 ug/ml incubated for 72 hrs by Annexin V-FITC/PI staining based flow cytometric analysis (reference value: 1.31 to 1.65%); assay type: functional
SMMC-7721 [8] = experiment: Induction of apoptosis in human SMMC7721 cells assessed as late apoptotic cells at 50 ug/ml incubated for 72 hrs by Annexin V-FITC/PI staining based flow cytometric analysis (reference value: 1.63 to 2.82%); assay type: functional
RWPE-1 = experiment: Cytotoxicity against human RWPE1 cells incubated for 72 hrs by MTT assay; assay type: cell-based; settings: RWPE-1, 72 h
SMMC-7721 [9] = experiment: Induction of apoptosis in human SMMC7721 cells assessed as live cells at 50 ug/ml incubated for 72 hrs by Annexin V-FITC/PI staining based flow cytometric analysis (reference value: 94.81 to 96.55%); assay type: functional
SMMC-7721 [10] = experiment: Induction of apoptosis in human SMMC7721 cells assessed as late apoptotic cells at 10 ug/ml incubated for 72 hrs by Annexin V-FITC/PI staining based flow cytometric analysis (reference value: 1.63 to 2.82%); assay type: functional
MCF-10A = experiment: Cytotoxicity against human MCF10A cells incubated for 72 hrs by MTT assay; assay type: cell-based
SMMC-7721 [11] = experiment: Induction of apoptosis in human SMMC7721 cells assessed as late apoptotic cells at 1 ug/ml incubated for 72 hrs by Annexin V-FITC/PI staining based flow cytometric analysis (reference value: 1.63 to 2.82%); assay type: functional
SMMC-7721 [12] = experiment: Induction of apoptosis in human SMMC7721 cells assessed as live cells at 1 ug/ml incubated for 72 hrs by Annexin V-FITC/PI staining based flow cytometric analysis (reference value: 94.81 to 96.55%); assay type: functional
MCF7 = experiment: Cytotoxicity against human MCF7 cells incubated for 72 hrs by MTT assay; assay type: functional, cell-based; settings: MCF7, 72 h
HCT-116 = experiment: Cytotoxicity against human HCT116 cells incubated for 72 hrs by MTT assay; assay type: functional, cell-based; settings: HCT-116, 72 h
SMMC-7721 [13] = experiment: Induction of apoptosis in human SMMC7721 cells assessed as necrotic cells at 10 ug/ml incubated for 72 hrs by Annexin V-FITC/PI staining based flow cytometric analysis (reference value: 0.52 to 0.72%); assay type: functional
DU-145 = experiment: Cytotoxicity against human DU145 cells incubated for 72 hrs by MTT assay; assay type: functional, cell-based; settings: DU-145, 72 h

Row | Structure (SMILES) | IC50 (SMMC-7721 [1]) [µM] | IC50 (L02) [µM] | further results
1 | CCCCCCCCCCCCCCCCCCSC(=S)N1CCN([C@@H]2O[C@@H]3O[C@@]4(C)CC[C@H]5[C@H](C)CC[C@@H]([C@H]2C)[C@@]35OO4)CC1 | 0.016 | 0.13 | –
2 | C[C@H]1[C@H](N2CCN(C(=S)SCc3ccccc3Cl)CC2)O[C@@H]2O[C@@]3(C)CC[C@H]4[C@H](C)CC[C@@H]1[C@@]24OO3 | 0.0237 | 0.2 | –
3 | Cc1ccc(CSC(=S)N2CCN([C@@H]3O[C@@H]4O[C@@]5(C)CC[C@H]6[C@H](C)CC[C@@H]([C@H]3C)[C@@]46OO5)CC2)cc1 | 0.0102 | 0.23 | –
4 | C[C@H]1[C@H](N2CCN(C(=S)SCc3ccc([N+](=O)[O-])cc3)CC2)O[C@@H]2O[C@@]3(C)CC[C@H]4[C@H](C)CC[C@@H]1[C@@]24OO3 | 0.0167 | 0.17 | –
5 | Cc1ccccc1CSC(=S)N1CCN([C@@H]2O[C@@H]3O[C@@]4(C)CC[C@H]5[C@H](C)CC[C@@H]([C@H]2C)[C@@]35OO4)CC1 | 0.0114 | 0.25 | –
6 | C[C@H]1[C@H](N2CCN(C(=S)SCc3ccc(Cl)cc3)CC2)O[C@@H]2O[C@@]3(C)CC[C@H]4[C@H](C)CC[C@@H]1[C@@]24OO3 | 0.0284 | 0.17 | –
7 | C[C@H]1[C@H](N2CCN(C(=S)SCC(=O)OCc3ccccc3)CC2)O[C@@H]2O[C@@]3(C)CC[C@H]4[C@H](C)CC[C@@H]1[C@@]24OO3 | 0.0332 | 0.15 | –
8 | C[C@H]1[C@H](N2CCN(C(=S)SCc3ccc4ccccc4c3)CC2)O[C@@H]2O[C@@]3(C)CC[C@H]4[C@H](C)CC[C@@H]1[C@@]24OO3 | 0.0243 | 0.16 | –
9 | C[C@H]1[C@@H](O)O[C@@H]2O[C@@]3(C)CC[C@H]4[C@H](C)CC[C@@H]1[C@@]24OO3 [ARTENIMOL] | > 0.1 | 0.36 | –
10 | C[C@H]1[C@H](N2CCN(C(=S)SCc3ccccc3)CC2)O[C@@H]2O[C@@]3(C)CC[C@H]4[C@H](C)CC[C@@H]1[C@@]24OO3 | 0.026 | 0.3 | –
11 | CC[C@]1(O)C[C@H]2CN(CCc3c([nH]c4ccccc34)[C@@](C(=O)OC)(c3cc4c(cc3OC)N(C=O)[C@H]3[C@@](O)(C(=O)OC)[C@H](OC(C)=O)[C@]5(CC)C=CCN6CC[C@]43[C@@H]65)C2)C1 [VINCRISTINE] | 0.0103 | 0.06 | –
12 | C[C@H]1[C@H](N2CCN(C(=S)SCc3ccc(Br)cc3)CC2)O[C@@H]2O[C@@]3(C)CC[C@H]4[C@H](C)CC[C@@H]1[C@@]24OO3 | 0.007 | 0.15 | –
13 | CCCCCSC(=S)N1CCN([C@@H]2O[C@@H]3O[C@@]4(C)CC[C@H]5[C@H](C)CC[C@@H]([C@H]2C)[C@@]35OO4)CC1 | 0.0371 | 0.18 | –
14 | Nc1ccn([C@@H]2O[C@H](CO)[C@@H](O)[C@@H]2O)c(=O)n1 [CYTARABINE] | 0.0271 | 0.21 | –
15 | C[C@H]1[C@H](N2CCN(C(=S)SCc3ccc(C#N)cc3)CC2)O[C@@H]2O[C@@]3(C)CC[C@H]4[C@H](C)CC[C@@H]1[C@@]24OO3 | 0.0025 | 0.18 | Activity (SMMC-7721 [2]): 50.41 - 53.94%; Activity (SMMC-7721 [3]): 2.2 - 2.98%; Activity (SMMC-7721 [4]): 30.54 - 31.3%; Activity (SMMC-7721 [5]): 26.43 - 27.05%; IC50 (CCD-18Co): 0.0406 µM; Activity (SMMC-7721 [6]): 1.5 - 1.77%; Activity (SMMC-7721 [7]): 45.82 - 46.69%; Activity (SMMC-7721 [8]): 21.86 - 24.63%; IC50 (RWPE-1): 0.0105 µM; Activity (SMMC-7721 [9]): 28.05 - 29.95%; Activity (SMMC-7721 [10]): 12.36 - 14.62%; IC50 (MCF-10A): 0.0224 µM; Activity (SMMC-7721 [11]): 6.72 - 9.36%; Activity (SMMC-7721 [12]): 61.22 - 63.68%; IC50 (MCF7): 0.0135 µM; IC50 (HCT-116): 0.0402 µM; Activity (SMMC-7721 [13]): 3.07 - 4.04%; IC50 (DU-145): 0.0063 µM
